According to patent publication EP4792822A1, “USE OF PEPTIDE AMIDE COMPOUND IN PREPARATION OF DRUG FOR […] AND VOMITING” (Haisco Pharmaceutical Group Co., Ltd., priority 2023, dated 2025):

Test system: subjects undergoing elective laparoscopic abdominal surgery under general anaesthesia
Assay: Example 1: phase III, placebo-controlled clinical study of compound 1 injection for postoperative analgesia (morphine rescue; nausea and vomiting recorded)
Format: in vivo, patients
From the text: This study was a multicentre, randomised, double-blind, placebo-controlled phase III clinical study conducted in China to evaluate the efficacy and safety of compound 1 injection for postoperative analgesia in subjects undergoing elective laparoscopic abdominal surgery under general anaesthesia. […] subjects undergoing elective laparoscopic abdominal surgery under general anaesthesia were enrolled and randomised to two groups: the compound 1 group (136 subjects) and the placebo group (135 subjects). All subjects received an intravenous injection of compound 1 injection or placebo injection within 5 min after the completion of the first NRS score assessment, and the end time of the first postoperative administration was recorded as 0 min. At 8 h and 16 h after the end of the first administration, within a time window of ±15 min, a single corresponding dose of the compound 1 injection or placebo injection was administered intravenously to the subjects.
Resting NRS score assessments were performed in subjects within 5 min before the first postoperative administration, and at 15 min ± 5 min, 30 min ± 5 min, 1 h ± 5 min, 2 h ± 15 min, 4 h ± 15 min, 8 h (within 30 min before the second postoperative administration), 12 h ± 30 min, 16 h (within 30 min before the last postoperative administration), 20 h ± 30 min, and 24 h ± 1 h after the first postoperative administration. The NRS score for resting pain refers to the NRS score assessed when the subject is at rest (e.g., sitting or lying still). If the subject was unconscious at a scheduled NRS assessment time point, the score was recorded as follows: if the previous NRS score was ≥ 2, the current NRS score was recorded as 2; if the previous NRS score was < 2, the current NRS score was recorded as the previous score. Meanwhile, it was documented that the subject was unconscious at the time of assessment.
A morphine injection was administered via intravenous injection for rescue treatment if the resting pain NRS score was ≥ 4 at any pain assessment time point after the first postoperative administration, or if the subject complained of pain at any time point and the resting pain NRS score was ≥ 4. It was recommended that the time from the subject's NRS assessment to actual administration of morphine injection be ≤ 30 min; an initial intravenous dose of 3 mg be administered, followed by additional doses as needed. It was also recommended that the interval between two rescue treatments be ≥ 2 h and that the interval between rescue medication and study drug administration be ≥ 1 h.
Prophylactic antiemetic treatment was prohibited during the study. After the first postoperative administration, the investigator administered antiemetic agents based on the occurrence of nausea and vomiting in the subject, and the dosage of the antiemetic agents was recorded. Tropisetron was the preferred antiemetic agent (an initial intravenous dose of 2.5 mg, followed by additional doses as needed, not to exceed 10 mg within 24 h). If tropisetron was insufficiently effective, other agents were used by the investigator in accordance with routine clinical practice.
Abdominal surgery, female sex, non-smoking status, and postoperative opioid use are known as risk factors leading to postoperation nausea and vomiting (PONV). Two studies of compound 1 injection for postoperative analgesia after abdominal surgery were completed. Morphine (Example 1) and flurbiprofen axetil (Example 2) were used as rescue analgesic agents in the two studies, respectively, and prophylactic antiemetic treatment was prohibited during the studies. The study results were summarised as follows.

[1] = Example 1, No morphine use (no rescue analgesia), N = 91
[2] = Example 1, No morphine use, listed as compound 1
[3] = Example 1, Overall, safety analysis set, N = 136
[4] = Example 1, Overall, safety analysis set, N = 136, listed as compound 1
[5] = within 0-12 h and 0-24 h after the first postoperative administration, compared with placebo
[6] = within 0-24 h after the first administration, compared with placebo

## CC(=O)N1CC2(CCN(C(=O)[C@@H](CCCCN)NC(=O)[C@@H](CC(C)C)NC(=O)[C@@H](Cc3ccccc3)NC(=O)[C@H](N)Cc3ccccc3)CC2)C1 [Compound 1, (2R)-N-[(1R)-1-(2-acetyl-2,7-diazaspiro[3.5]nonane-7-carbonyl)-5-amino-pentyl]-2-[[(2R)-2-[[(2R)-2-amino-3-phenyl-propionyl]amino]-3-phenylpropionyl]amino]-4-methyl-pentanamide]
Example 1
  overall safety and tolerability: good overall safety and tolerability
Example 1, No morphine use
  Change in incidence of nausea relative to placebo: 25.7% reduction
  Change in incidence of vomiting relative to placebo: 20.1% reduction
[1]
  Nausea (incidence): 16.5%
  Vomiting (incidence): 18.7%
[2]
  Change in incidence of nausea relative to placebo: 25.7 % reduction
  Change in incidence of vomiting relative to placebo: 20.1 % reduction
Example 1, Overall
  Change in incidence of nausea relative to placebo: 35.8% reduction
  Change in incidence of vomiting relative to placebo: 52.8% reduction
[3]
  Nausea (incidence): 17.6%
  Vomiting (incidence): 15.4%
[4]
  Nausea (incidence): 17.6%
  Vomiting (incidence): 15.4%
Compared with placebo
  PID at each time point: significantly lower than those in the placebo group
  SPID0-12 h after the first postoperative administration: significantly lower than those in the placebo group
  SPID0-24 h after the first postoperative administration: superior to that in the placebo group
  duration of analgesia: significantly longer than those in the placebo group
  incidences of adverse reactions: comparable to those in the placebo group
  incidences of adverse reactions (including nausea and vomiting): significantly lower than those in the placebo group
  incidences of the main TEAEs (including nausea and vomiting): significantly lower than those in the placebo group
  subject and investigator satisfaction scores for postoperative analgesia: significantly higher than those in the placebo group
  time to the first use of rescue analgesic agents: significantly longer than those in the placebo group
Summary of both Phase III studies (Example 1)
  effect on PONV in patients after abdominal surgery: preventive and/or alleviating effect on PONV
[5]
  mean cumulative dosage of rescue analgesic agents: significantly lower than those in the placebo group
  proportion of subjects with NRS scores ≤ 3: significantly higher than those in the placebo group
[6]
  mean cumulative dosage of antiemetic agents: significantly lower than those in the placebo group
  proportion of subjects using antiemetic agents: significantly lower than those in the placebo group
Within 0-24 h after the first postoperative administration, compared with placebo
  proportion of subjects using rescue analgesic agents: significantly lower than those in the placebo group
